Like-named read-outs stand apart in the source and are kept apart here.
Key:
[1] = molecular target: T1, beta adrenoceptor (heart) (Rattus norvegicus, UniProt P18090); assay: inhibition of isoproterenol-induced tachycardia in the pithed rat; type: in vivo; conditions: read-out: Pithed Rat Effective Dose (ID50)
T1 construct: from tissue; host or cells: heart in the whole animal (pithed rat, in vivo)

[2] = system: resting heart rate in the pithed rat; assay: intrinsic sympathomimetic activity: increase in resting heart rate in the pithed rat; type: in vivo; conditions: maximum effect of cumulative doses of drug up to 3 mg/kg
[3] = in words; cited from earlier work
[4] = system: resting heart rate in the pithed rat; conditions: in words; cited from earlier work
[5] = molecular target: T2, beta adrenoceptor (guinea pig atrium) (Cavia porcellus, UniProt H0W3H1); assay: beta adrenoceptor blocking activity in the spontaneously beating guinea pig atrium (inhibition of positive chronotropic isoproterenol effect); type: cell-based
T2 construct: in the spontaneously beating guinea pig atrium; from tissue; host or cells: guinea pig atrium, spontaneously beating

[6] = system: beta adrenoceptor (guinea pig trachea); assay: inhibition of isoproterenol-induced relaxation in guinea pig tracheal preparations (cardioselectivity); type: cell-based; conditions: selectivity index, guinea pig trachea vs atrium
[7] = molecular target: T3, beta adrenoceptor (guinea pig trachea) (Cavia porcellus, UniProt Q8K4Z4); assay: as above; type: cell-based; conditions: guinea pig trachea, in words
T3 construct: tracheal preparations of the guinea pig; from tissue; host or cells: guinea pig tracheal muscle

[8] = inhibition of isoproterenol-induced tachycardia, pithed rat
[9] = dose which doubles the concentration of isoproterenol needed to elicit a 50% increase in heart rate, spontaneously beating guinea pig atrium, read-out: Guinea Pig Atrium, Effective Molar Dose (ID50)

T1 sequence (P18090 whole entry): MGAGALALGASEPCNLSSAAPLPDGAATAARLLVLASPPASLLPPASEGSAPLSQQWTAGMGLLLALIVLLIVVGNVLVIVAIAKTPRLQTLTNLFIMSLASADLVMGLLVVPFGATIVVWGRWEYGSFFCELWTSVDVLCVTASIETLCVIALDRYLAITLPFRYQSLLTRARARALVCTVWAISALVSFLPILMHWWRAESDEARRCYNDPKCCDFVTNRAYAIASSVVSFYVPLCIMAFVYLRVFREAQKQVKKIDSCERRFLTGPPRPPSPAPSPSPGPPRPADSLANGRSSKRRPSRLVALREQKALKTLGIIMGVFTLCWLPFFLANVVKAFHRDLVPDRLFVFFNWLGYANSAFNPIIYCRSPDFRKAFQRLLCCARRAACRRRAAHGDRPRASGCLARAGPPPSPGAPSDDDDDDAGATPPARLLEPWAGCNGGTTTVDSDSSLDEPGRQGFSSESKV
T2 sequence (H0W3H1 1-470): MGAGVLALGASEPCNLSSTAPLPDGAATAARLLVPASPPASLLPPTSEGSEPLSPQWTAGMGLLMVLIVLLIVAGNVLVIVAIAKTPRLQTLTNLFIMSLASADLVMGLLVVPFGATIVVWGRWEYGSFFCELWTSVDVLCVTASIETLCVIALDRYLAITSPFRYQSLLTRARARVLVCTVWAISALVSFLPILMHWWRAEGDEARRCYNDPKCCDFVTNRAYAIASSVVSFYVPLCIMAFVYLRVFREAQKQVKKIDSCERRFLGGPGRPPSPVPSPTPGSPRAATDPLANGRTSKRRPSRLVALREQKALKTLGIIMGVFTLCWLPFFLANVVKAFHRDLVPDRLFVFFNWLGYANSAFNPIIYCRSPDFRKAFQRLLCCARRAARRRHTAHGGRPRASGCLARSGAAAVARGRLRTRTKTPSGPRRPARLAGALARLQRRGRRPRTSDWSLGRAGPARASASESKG
T3 sequence (Q8K4Z4 whole entry): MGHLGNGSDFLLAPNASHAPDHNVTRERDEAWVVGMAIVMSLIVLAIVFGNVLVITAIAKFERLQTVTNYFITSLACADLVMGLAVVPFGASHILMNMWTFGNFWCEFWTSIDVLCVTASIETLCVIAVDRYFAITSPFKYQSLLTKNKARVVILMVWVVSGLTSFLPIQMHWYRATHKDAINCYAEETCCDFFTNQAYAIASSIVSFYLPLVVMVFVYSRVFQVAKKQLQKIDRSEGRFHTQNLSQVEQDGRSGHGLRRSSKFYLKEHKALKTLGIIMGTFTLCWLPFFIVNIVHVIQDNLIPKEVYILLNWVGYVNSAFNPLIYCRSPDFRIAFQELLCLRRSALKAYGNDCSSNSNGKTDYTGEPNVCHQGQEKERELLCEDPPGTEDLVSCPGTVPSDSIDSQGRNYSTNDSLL

## CCCOCCOc1ccc(OCC(O)CNCCNC(=O)c2ccoc2)cc1 (stereo not drawn) [Example 28]
[1]; [8]
  ED50: 0.003 mg/kg

## CC(C)NCC(O)COc1cccc2ccccc12 (stereo not drawn) [Propranolol]
[2]
  Maximum Change in Resting Heart Rate in the Pithed Rat: 0
[3]
  plasma cholesterol effect, known drug: elevated plasma cholesterol
  rebound hypersensitivity after cessation, known drug: rebound hypersensitivity occurring after cessation
[4]
  intrinsic sympathomimetic activity (ISA), known drug: no ISA

## CCCOCCOc1ccc(OCC(O)CNCCNC(=O)Nc2ccc3[nH]ccc3c2)c(C#N)c1 (stereo not drawn) [Example 1, N-[2-[3-[2-cyano-4-(2-propoxyethoxy)phenoxy]-2-hydroxypropylamino]-ethyl]-N'-(1H-indol-5-yl)-urea]
[5]; [9]
  Kb: 3 nM
[1]; [8]
  ED50: 0.002 mg/kg
[6]
  selectivity (cardiac atrial vs tracheal): 17000
[2]
  Maximum Change in Resting Heart Rate in the Pithed Rat: +101

## O=C(NCCNCC(O)COc1ccc(OCCOCC2CC2)cc1)c1ccco1 (stereo not drawn) [Example 23]
[1]; [8]
  ED50: 0.03 mg/kg
[2]
  Maximum Change in Resting Heart Rate in the Pithed Rat: +42

## CCCOCCOc1ccc(OCC(O)CNCCNC(=O)Cc2ccsc2)c(C#N)c1 (stereo not drawn) [Example 11]
[5]; [9]
  Kb: 12 nM
[2]
  Maximum Change in Resting Heart Rate in the Pithed Rat: +66

## CC(C)NCC(O)COc1cccc2[nH]ccc12 (stereo not drawn) [Pindolol, reference compound]
[2]
  Maximum Change in Resting Heart Rate in the Pithed Rat: +89

## CC(C)NCC(O)COc1ccc(CCOCC2CC2)cc1 (stereo not drawn) [Betaxolol, reference compound]
[2]
  Maximum Change in Resting Heart Rate in the Pithed Rat: 0

## CC(C)NCC(O)COc1ccc(CC(N)=O)cc1 (stereo not drawn) [Atenolol, reference compound]
[5]
  Kb: 200 nM
[1]; rat
  ED50: 0.03 mg/kg
[7]
  blocking actions of the isoproterenol response in the trachea: significant blocking actions of the isoproterenol response in the trachea
[2]
  Maximum Change in Resting Heart Rate in the Pithed Rat: 0

## N#Cc1cc(OCCOCCc2ccccc2)ccc1OCC(O)CNCCNC(=O)Nc1ccc2[nH]ccc2c1 (stereo not drawn) [Example 14]
[5]; [9]
  Kb: 10 nM

## CCCOCCOc1ccc(OCC(O)CN[C@H](C)CNC(=O)c2ccco2)c(F)c1 (stereo partly drawn) [Example 33]
[5]; [9]
  Kb: 8 nM

## CCCCOCCOc1ccc(OCC(O)CNCCNC(=O)Nc2ccc3[nH]ccc3c2)c(C#N)c1 (stereo not drawn) [Example 13]
[2]
  Maximum Change in Resting Heart Rate in the Pithed Rat: +105

## CCCOCCOc1ccc(OCC(O)CN[C@H](C)CNC(=O)c2ccco2)cc1 (stereo partly drawn) [Example 29]
[5]; [9]
  Kb: 30 nM
[1]; [8]
  ED50: 0.05 mg/kg

## CCCOCCOc1ccc(OCC(O)CNCCNC(=O)Cc2ccc3[nH]ccc3c2)c(C#N)c1 (stereo not drawn) [Example 9]
[5]; [9]
  Kb: 25 nM

## CCCOCCOc1ccc(OCC(O)CNCCNC(=O)c2ccc3[nH]ccc3c2)c(C#N)c1 (stereo not drawn) [Example 20]
[5]; [9]
  Kb: 50 nM

## COCCOc1ccc(OCC(O)CNCCNC(=O)Nc2ccc3[nH]ccc3c2)c(C#N)c1 (stereo not drawn) [Example 6]
[5]; [9]
  Kb: 13 nM

## N#Cc1cc(OCCOCc2ccc(F)cc2)ccc1OCC(O)CNCCNC(=O)Nc1ccc2[nH]ccc2c1 (stereo not drawn) [Example 19]
[5]; [9]
  Kb: 100 nM
[1]; [8]
  ED50: 0.1 mg/kg
[2]
  Maximum Change in Resting Heart Rate in the Pithed Rat: +51

Reference: patent publication US4977153A, “3-aminopropyloxyphenyl derivatives, pharmaceutical compositions containing them and method for the therapy of diseases” (Louis; William J., priority 1985, dated 1990)
